Experiment [1] has as its target T1, GPR55A (Homo sapiens, UniProt Q9Y2T6).
T1 construct: expressed in transfected cells; host or cells: HEK293s (transient, pIRESneo2 vector), membranes
The experiment in a line: GTPγS binding assay on membranes of GPR55A-transfected HEK293s cells. The format is biochemical. As to conditions: for EC50: NA = not active; for activation of GPR55A (GTPγS): concentration response. The procedure:
Membranes with or without 20 μM ligand were assayed for their stimulatory or inhibitory activity on GTPγS binding. As a negative control, cell membranes were prepared from empty vector-transfected cells, and as a positive control, cell membranes were prepared from CB1 transfected cells.
Receptor activity was determined using a GTPγS binding assay as follows: 10 μg of membranes diluted in 200 μl of 100 mM NaCl, 5 mM MgCl2, 1 mM EDTA, 50 mM HEPES (pH 7.4), 1 mM DTT, 0.1% BSA and 100 μM GDP. To this was added the required concentration of test compound and […] ^35S-GTPγS in the presence or absence of an EC80 concentration of agonist (HU210). […] Samples were then transferred on to GF/B filters using a cell harvester and washed with wash buffer (50 mM Tris (pH 7.4), 5 mM MgCl2, 50 mM NaCl). Filters were then covered with scintilant and counted for the amount of ^35S-GTPγS retained by the filter. To determine the level of non-specific binding control reactions were performed in the presence of 10 μM GTPγS.
Functional activity of ligands either in the presence or absence of agonists was determined as follows: Non-specific binding was subtracted from all values determined. The effect of compounds at various concentrations was plotted according to the equation y=A+((B−A)/1+((C/x)?ˆD))) and EC50 or IC50 estimated. Results
To further define the agonist activities of cannabinoid ligands EC50 determinations were made. […] Refer to FIGS. 5A-5D for the results. […] Table 1. Activity of ligands at GPR55A (Antagonist data were generated in the presence of an EC80 concentration of HU210.)

Experiment [2] is described as follows: Radioligand binding, membranes of vector-transfected cells (negative control). As to conditions: vector-transfected cell membranes. The procedure:
(§1) Test compounds were added followed by 1.6 nM radioligand (3H—SR-141716A, ^3H-CP55940 or ^3H-WIN-55, 212-2) to an assay mixture containing membranes (10 μg protein) in 5.0 mM Tris, 5.0 mM MgCl2×6H2O (pH 7.4) supplemented with 0.05% BSA. The reaction was allowed to proceed at 30° C. for 90 min and then terminated by rapid filtration using GF/B filters (pre-soaked in 0.05% PEI) and washed with 50 mM Tris (pH 7.4), MgCl2×6H2O. Filters were then covered with scintillant and counted for the amount of radioligand retained. Non-specific binding was determined in the presence of 200 nM SR-141716A, CP55940 or WIN-55, 212-2.

Experiment [3] deals with T2, GPR55 (Homo sapiens, UniProt Q9Y2T6).
T2 construct: FLAG; expressed in transfected cells; host or cells: HEK293S (transient), membranes
T2 sequence (Q9Y2T6 whole entry L132S/R133G/S134P/R136G/K137R/I138S/F139L/I141S/C142A): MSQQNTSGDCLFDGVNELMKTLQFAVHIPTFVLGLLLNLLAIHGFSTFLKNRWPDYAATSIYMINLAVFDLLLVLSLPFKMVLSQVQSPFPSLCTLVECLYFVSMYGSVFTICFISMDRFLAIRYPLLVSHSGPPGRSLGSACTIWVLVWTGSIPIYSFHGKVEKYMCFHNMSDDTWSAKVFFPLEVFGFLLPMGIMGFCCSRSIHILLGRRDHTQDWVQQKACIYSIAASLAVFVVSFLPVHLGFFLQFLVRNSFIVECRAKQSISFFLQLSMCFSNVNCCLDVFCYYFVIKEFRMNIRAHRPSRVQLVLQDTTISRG
The experiment in a line: Radioligand binding, membranes of GPR55-transfected HEK293S cells. Particulars: for specific binding of radioligand: 1.6 nM radioligand. The protocol: (§2) To test whether GPR55 and/or GPR55Δ encoded a receptor that had the potential to perform as a cannabinoid receptor we transiently transfected cDNAs encoding FLAG-tagged forms of the receptors into HEK293S cells using lipofectamine. The cells were harvested 48 hours later and membranes prepared.
(§3) Membrane preparations were prepared by re-suspending receptor expressing cells in ice cold TE buffer (10 mM Tris-HCL 0.1 mM EDTA pH7.5) and leaving on ice for 5 minutes before pelleting the insoluble material by centrifugation at 1000 g. This process was repeated twice before re-suspending the pellet in an appropriate volume of TE and storing at −80° C.
as §1

Experiment [4] concerns the target T1, GPR55A. The experiment in a line: Radioligand binding, membranes of GPR55A-transfected HEK293S cells. Particulars: for specific binding of radioligand: 1.6 nM radioligand. The procedure: as §2, §3, §1
[5] abbreviates: GTPγS binding, GPR55A membranes.

T1 sequence (Q9Y2T6 whole entry): as the sequence (Q9Y2T6 whole entry L132S/R133G/S134P/R136G/K137R/I138S/F139L/I141S/C142A) above, with S132L, G133R, P134S, G136R, R137K, S138I, L139F, S141I, A142C counted along it

What is called EC50 is the concentration needed to bring the measured effect to its halfway point. Lower therefore signals an effect from little substance. In turn, `CCCCC/C=C\C/C=C\C/C=C\C/C=C\CCCC(=O)OC(CO)CO` [2-AG, 2-aracodonylglycerol] came in with a concentration giving a half-maximal response (EC50) in experiment [1] (setting [5]) of 3.5 ± 2.4 nM. The “activation of GPR55A (GTPγS)” value in experiment [1] was “concentration-dependent activation”.
Regarding `C=C(C)[C@@H]1CCC(C)=C[C@H]1c1c(O)cc(O)cc1CCCCC` [Abnormal cannabidiol], in experiment [1] (setting [5]), the response was half-maximal at 2780 ± 98 nM (EC50).
Regarding `CCCCC/C=C\C/C=C\C/C=C\C/C=C\CCCC(=O)NCCO` [Anandamide], the EC50 in experiment [1] (setting [5]) was 18.4 ± 4.1 nM. Besides, in experiment [1], the “activation of GPR55A (GTPγS)” value is given as “concentration-dependent activation”.
On to `CCCCCCC(C)(C)c1ccc([C@@H]2C[C@H](O)CC[C@H]2CCCO)c(O)c1` [CP55940], for which the “concentration dependent activity after pertussis toxin or cholera toxin treatment” value in experiment [1] (GPR55a in HEK293s membranes, treated with either toxin vs untreated) is on record as “remains unaltered”. In experiment [1] (setting [5]), this compound displayed an EC50 of 7.1 ± 1.3 nM.
Usually IC50 stands for the concentration that inhibits the measured activity by half. Consider `C=C(C)[C@@H]1CCC(C)=C[C@H]1c1c(O)cc(CCCCC)cc1O` [Cannabidiol], for which, in experiment [1] (GTPγS binding, GPR55A membranes, antagonist data in the presence of an EC80 concentration of HU210, read-out: IC50 measurement), the IC50 was found to be 354 ± 63 nM.
On to `CCCCCCC(C)(C)c1cc(O)c2c(c1)OC(C)(C)[C@@H]1CC=C(CO)C[C@@H]21` [Hu210], for which the response in experiment [1] (setting [5]) was half-maximal at 33 ± 12 nM (EC50).
Still for that read-out and setting: for `CCCn1c(C)c(C(=O)c2cccc3ccccc23)c2ccccc21` [JWH-015] the value was 4.75 ± 0.25 nM.
`CCCCC/C=C\C/C=C\C/C=C\C/C=C\CCCCOC(CO)CO` [Noladin Ether] gave an EC50 in experiment [1] (setting [5]) of 11.5 ± 0.5 nM. Further, the “activation of GPR55A (GTPγS)” value in experiment [1] was “concentration-dependent activation”.
`CCCCCCCC/C=C\CCCCCCCC(=O)NCCO` [Oleylethanolamide] had an EC50 in experiment [1] (setting [5]) of 424 ± 203 nM.
In experiment [1] (setting [5]), `CCCCCCCCCCCCCCCC(=O)NCCO` [Palmitoylethanolamide] showed an EC50 of 3.2 ± 1.3 nM. Moreover, in experiment [1], the “activation of GPR55A (GTPγS)” value is given as “concentration-dependent activation”.
Regarding `Cc1c(C(=O)NN2CCCCC2)nn(-c2ccc(Cl)cc2Cl)c1-c1ccc(Cl)cc1` [SR141716], the “specific binding, [^3H]-SR141716 competition” value in experiment [2] was “no specific binding”. Moreover, the “displacement of [^3H]-SR141716 (competition-binding curve)” value in experiment [3] and in experiment [4] was “nanomolar affinity” in each case.
In experiment [1] (setting [5]), `CCCCC/C=C\C/C=C\C/C=C\C/C=C\CCCC(=O)OCCN` [Virodhamine] displayed an EC50 of 10.4 ± 1.4 nM.
Take `CCCCCCC(C)(C)c1ccc([C@@H]2C[C@H](O)CC[C@H]2CCCO)c(O)c1` [[^3H]-CP55940]: the “specific binding of radioligand” value in experiment [3] and in experiment [4] was “significant binding” throughout.
As to `Cc1c(C(=O)NN2CCCCC2)nn(-c2ccc(Cl)cc2Cl)c1-c1ccc(Cl)cc1` [[^3H]-SR141716], the “specific binding of radioligand” value in experiment [3] and in experiment [4] was “significant binding” throughout.
Turning to `Cc1c(C(=O)c2cccc3ccccc23)c2cccc3c2n1C(CN1CCOCC1)CO3` (stereo not drawn) [[^3H]-WIN55-212], the “specific binding of radioligand” value in experiment [3] and in experiment [4] was “little or no binding” throughout.
`CCCCCc1cc(O)c2c(c1)OC(C)(C)[C@@H]1CCC(C)=C[C@@H]21` [Δ9-THC, Δ9-tetrahydrocannbinol] registered an EC50 in experiment [1] (setting [5]) of 8.9 ± 1.1 nM. Besides, the “activation of GPR55A (GTPγS)” value in experiment [1] is reported as “concentration-dependent activation”.

For the origin of these results see patent US20060194260A1, “Screening assays for cannabinoid-ligand-type modulators of gpr55” (priority 2003, published 2006).
